Reference: article PMC6030240 (Molecules and Cells, 2018)
pIC50: −log10 of the molar value. Like-named read-outs stand apart in the source and are kept apart here.

Legend:
[1] = target: T1, Spleen tyrosine kinase (SYK) (Homo sapiens, UniProt P43405); experiment: co-crystal structure at […] Å; type: biochemical
[2] = target: T1, Spleen tyrosine kinase (SYK); experiment: co-crystal structure at […] Å; type: biochemical; remark: listed apart in the source

Row | pIC50 [1] | pIC50 [2] | SMILES
1 | 7.75 | – | Cn1ncc2cc(Nc3nc(N4CCC(O)CC4)nc4cc[nH]c(=O)c34)ccc21 [SKI-G-618, 2-(4-hydroxypiperidin-1-yl)-4-((1-methyl-1H-indazol-5-yl)amino)pyrido[4,3-d]pyrimidin-5(6H)-one]
2 | – | 6.68 | CS(=O)(=O)c1ccc(Nc2nc(N[C@H]3CCCC[C@@H]3N)nc3cc[nH]c(=O)c23)cc1 [SKI-O-85, (1S,2S)-2-((4-((4-(methylsulfonyl)phenyl)amino)-5-oxo-5,6-dihydropyrido[4,3-d]pyrimidin-2-yl)amino)cyclohexan-1-aminium]
